Measurements from publication PMC9415646, “Improving Aqueous Solubility and In Vitro Pharmacokinetic Properties of the 3-Nitroimidazo[1,2-a]pyridine Antileishmanial Pharmacophore” (Pharmaceuticals, 2022).
Like-named read-outs stand apart in the source and are kept apart here.

Assays:
[1] = system: L. infantum promastigotes; assay: Antileishmanial activity against L. infantum promastigotes (luciferase assay); type: cell-based; conditions: Leishmania infantum, 72 h, read-out: EC50 L. infantum Pro.
Method: L. infantum promastigotes (MHOM/MA/67/ITMAP-263, CNR Leishmania, Montpellier, France, expressing luciferase activity) were used in the following tests. The effects of the tested compounds on the growth of L. infantum promastigotes were assessed by Luciferase Assay. Briefly, promastigotes in log-phase in RPMI 1640 medium supplemented with 10% fetal calf serum (FCS), 2 mM L-glutamine and antibiotics (100U/mL penicillin, 100 µg/mL streptomycin and 50µg/mL geneticin), were incubated at an average density of 10^6 parasites/mL (100 µL/well) in sterile 96-well plates with various concentrations of compounds dissolved in DMSO (final concentration less than 0.5% v/v), in duplicate. Appropriate controls (100 µL/well) treated by DMSO and reference drugs (purchased for the majority from Sigma Aldrich) were added to each set of experiments. After a 72 h incubation period at 24 °C, each plate-well was then microscope-examined for detecting possible precipitate formation. To estimate the luciferase activities of promastigotes, 80 µL of each well are transferred in white 96-well plates, Steady Glow reagent (Promega) was added according to manufacter’s instructions, and plates were incubated for 2 min. The luminescence was measured in a FLUOstar Omega (BMG Labtech, Champigny-sur-Marne, France). […] EC50 were calculated by non-linear regression analysis processed on dose–response curves, using TableCurve 2D V5 software.

[2] = system: L. infantum axenic amastigotes; assay: Antileishmanial activity on L. infantum axenic amastigotes (luciferase assay); type: cell-based; conditions: Leishmania infantum, 48 h, read-out: EC50 L. infantum Axenic Ama.
Method: L. infantum promastigotes were harvested in logarithmic phase of growth by centrifugation at 900× g for 10 min. The supernatant was removed carefully and was replaced by the same volume of RPMI 1640 complete medium at pH 5.4 and incubated for 24 h at 24 °C. The acidified promastigotes were then incubated for 24 h at 37 °C in a ventilated flask to transform them into axenic amastigotes. The amastigote stage was checked both by electron microscopy (short flagellum with small bulbous tip extending beyond a spherical cell body) and RT-PCR to confirm the overexpression of ATG8 and amastin genes in amastigotes, relative to promastigotes. The effects of the tested compounds on the growth of L. infantum axenic amastigotes were assessed as follows. L. infantum amastigotes were incubated at a density of 2 × 10^6 parasites/mL in sterile 96-well plates with various concentrations of compounds dissolved in DMSO (final concentration less than 0.5% v/v), in duplicate. Appropriate controls treated with DMSO, amphotericin B, miltefosine, fexinidazole and fexinidazole sulfone were added to each set of experiments. After a 48 h incubation period at 37 °C, each plate-well was then microscopically examined to detect any precipitate formation.
(§1) • Luciferase activity and determination of EC50 were performed as above.

[3] = Cytotoxicity on THP-1 cell line (MTT); type: cell-based; conditions: human, THP-1 cells, THP1 cell line
Method: The plates were incubated for 72 h at 37 °C. Each well plate was then microscope-examined for detecting possible precipitate formation before the medium was aspirated from the wells. 100 µL of MTT solution (0.5 mg/mL in medium) were then added to each well. Cells were incubated for 2 h at 37 °C. […] Plates were shaken vigorously (300 rpm) for 10 min. The absorbance was measured at 570 nm using a BIO-TEK ELx808 Absorbance Microplate Reader. DMSO was used as blank and doxorubicin (purchased from Sigma Aldrich) as positive control. Cell viability was calculated as percentage of control (cells incubated with DMSO). […] (Palo Alto, CA, USA). CC50 values represent the mean value calculated from three separate experiments.

[4] = system: L. donovani promastigotes; assay: Antileishmanial activity against L. donovani promastigotes (MTT assay); type: cell-based; conditions: Leishmania donovani, 72 h, read-out: EC50 L. donovani Pro.
Method: The Leishmania species used in this study were L. donovani (MHOM/IN/00/DEVI) purchased from CNR Leishmania (Montpellier, France). Leishmania promastigote forms were grown in Schneider’s Drosophila medium (Life Technologies, Saint-Aubin, France) supplemented with 100 U/mL penicillin, 100 µg/mL streptomycin, 2 mM L-glutamine and 20% FCS (Life Technologies, Saint-Aubin, France) at 27 °C. The in vitro evaluation of the tested compound’s antileishmanial activity on promastigote forms was carried out by MTT assay according to the Mosmann protocol with some modifications. Briefly, promastigotes in log-phase were incubated at an average density of 10^6 parasites/mL in sterile 96-well plates with various concentrations of compound dissolved in DMSO (final concentration less than 0.5% v/v), in duplicate. Appropriate controls treated with DMSO, Miltefosine, Amphotericin B, Fexinidazole, and Fexinidazole sulfone (reference drugs purchased from Sigma-Aldrich, Saint-Louis, Missouri, USA) were added to each set of experiments. After a 72 h incubation period at 27 °C, parasitic metabolic activity was determined. Each plate-well was then microscope-analyzed to detect any precipitate formation. 20 µL of MTT (3-(4,5-dimethylthiazol-2-yl)-2,5-diphenyltetrazolium bromide) (Sigma-Aldrich, Saint-Louis, Missouri, USA) solution (5 mg/mL in PBS) were added to each well and incubated for 4 h at 27 °C. The enzyme reaction was then stopped by addition of 100 µL of 50% isopropanol–10% sodium dodecyl sulfate. Plates were shaken vigorously at 300 rpm for 10 min. The absorbance was measured at 570 nm in a BIO-TEK Elx808 (Biotek, Colmar, France) absorbance microplate reader. […] EC50 values were calculated by non-linear regression analysis processed dose-response curves, using TableCurve 2D V5.0 software (Systat Software Inc. (Palo Alto, CA, USA)). EC50 values represent the mean value calculated from at least three separate experiments.

[5] = Cytotoxicity evaluation on HepG2 cell line (MTT); type: cell-based; conditions: human, HepG2 cells
Method: The tested molecules’ cytotoxicity was assessed according to the method of Mosmann with slight modifications. […] Triplicate assays were performed for each sample. Each plate-well was then microscope-examined to detect possible precipitate formation before the medium was aspirated from the wells. 100 µL of MTT (3-(4,5-dimethyl-2-thiazolyl)-2,5-diphenyl-2H-tetrazolium bromide) solution (0.5 mg/mL in medium without FCS) were then added to each well. […] Plates were shaken vigorously (700 rpm) for 10 min. The absorbance was measured at 570 nm with 630 nm as reference wavelength using a BIO-TEK ELx808 Absorbance Microplate Reader. DMSO was used as blank and doxorubicin (purchased from Sigma Aldrich) as positive control. Cell viability was calculated as percentage of control (cells incubated without compound). […] (Palo Alto, CA, USA)). CC50 values represent the mean value calculated from three separate experiments.

[6] = system: T. b. brucei BSF trypomastigotes; assay: Antitrypanosomal evaluation on T. b. brucei BSF trypomastigotes (Alamar Blue); type: cell-based; conditions: Trypanosoma brucei, trypomastigote blood stream form
Method: The effects of the tested compounds on the growth of T. b. brucei were assessed by Alamar Blue® assay described by Räz et al. T. b. brucei AnTat 1.9 (IMTA, Antwerpen, Belgium) was cultured in MEM with Earle’s salts, supplemented according to the protocol of Baltz et al. with the following modifications: 0.5 mM mercaptoethanol (Sigma Aldrich®, France), 1.5 mM L-cysteine (Sigma Aldrich®), 0.05 mM bathocuproïne sulfate (Sigma Aldrich®) and 20% heat-inactivated horse serum (Gibco®, France), at 37 °C and 5% CO2. They were incubated at an average density of 2000 parasites/100 µL in sterile 96-wells plates (Fisher®, France) with various concentrations of compounds dissolved in DMSO, in duplicate. Appropriate controls suramin, treated with sterile water, and fexinidazole, treated with DMSO on sterile water (reference drugs purchased from Sigma Aldrich, France and Fluorochem, UK) were added to each set of experiments. After a 69 h incubation period at 37 °C, 10 µL of the viability marker Alamar Blue® (Fisher, France) were then added to each well, and the plates were incubated for 5 h. The plates were read in a ENSPIRE microplate reader (PerkinElmer, Waltham, MA, USA) using an excitation wavelength of 530 nm and an emission wavelength of 590 nm. […] EC50 were calculated by nonlinear regression analysis processed on dose-response curves, using GraphPad Prism software (USA). EC50 values were calculated from three separate experiments.

[7] = system: L. infantum intracellular amastigotes; assay: Antileishmanial activity on L. infantum intracellular (intra-THP1 macrophage) amastigotes; type: cell-based; conditions: Leishmania infantum, THP-1; intramacrophage (THP1) amastigotes, 120 h; read-out: EC50 L. infantum Intra. Ama.
Method: The undifferentiated THP1 human monocyte cells (acute monocytic leukemia cell line purchased from ATCC, ref TIB-202) were grown in RPMI 1640 medium (Life Technologies, Saint-Aubin, France) supplemented with 10% FCS (Life Technologies, Saint-Aubin, France), 100 U/mL penicillin, 100 µg/mL streptomycin and 2 mM L-glutamine at 37 °C, 5% CO2. The culture was maintained between 3.10^5 and 1.10^6 cells/mL. The in vitro evaluation of the antileishmanial activity on intracellular amastigote forms of the tested compound was assessed as below.
Briefly, 200 μL of THP-1 cells with Phorbol 12-Myristate 13-Acetate (final concentration 50 ng/mL) were seeded in 96-well plates at an average density of 0.77 × 10^5 cells/mL and incubated for 96 h at 37 °C, 5% CO2. Promastigotes were centrifuged at 3000 rpm for 10 min and the supernatant replaced by the same volume of complete RPMI pH 5.4 and incubated for 24 h at 27 °C. Differentiated THP-1 cells were then infected by acidified promastigotes with an infection ratio of twenty parasites for one macrophage and incubated for 24 h at 37 °C, 5% CO2.
as §1

O=[N+]([O-])c1c(CS(=O)(=O)c2ccc(O)cc2)nc2c(Br)cc(Cl)cn12 [Compound 2c, 4-{[(8-Bromo-6-Chloro-3-Nitroimidazo[1,2-a]pyridin-2-yl)methyl]sulfonyl}phenol]
EC50 [1]: > 100 µM | EC50 [2]: > 5 µM | CC50 at 72 h [3]: > 100 µM | melting point: 242 °C | EC50 ([4]; promastigotes, MTT): > 3.1 µM | CC50 at 72 h [5]: > 3.9 µM | EC50 [6]: 0.4 ± 0.03 µM

Cn1c([N+](=O)[O-])cnc1COc1ccc(S(C)(=O)=O)cc1 [Fexinidazole sulfone, reference compound]
EC50 [1]: 1.1 ± 0.1 µM | EC50 [2]: 4.3 ± 0.1 µM | EC50 [7]: 17.8 ± 1.4 µM | CC50 at 72 h [3]: > 100 µM | EC50 ([4]; promastigotes, MTT): 1.2 ± 0.2 µM

O=[N+]([O-])c1c(CS(=O)(=O)CCC(F)(F)F)nc2c([S+]([O-])c3ccc(Cl)cc3)cc(Cl)cn12 (stereo not drawn) [Compound 6a, 6-Chloro-8-[(4-Chlorophenyl)sulfinyl]-3-Nitro-2-[(3,3,3-Trifluoropropylsulfonyl)methyl] imidazo[1,2-a]pyridine]
EC50 [1]: 7.4 ± 0.4 µM | EC50 [2]: 5 ± 0.1 µM | EC50 [7]: 3.3 ± 0.2 µM | CC50 at 72 h [3]: > 100 µM | melting point: 221 °C | EC50 ([4]; promastigotes, MTT): 1.9 ± 0.3 µM | CC50 at 72 h [5]: > 5 µM

C[C@@H]1[C@H](O)[C@@H](C)/C=C/C=C/C=C/C=C/C=C/C=C/C=C/[C@H](O[C@@H]2O[C@H](C)[C@@H](O)[C@H](N)[C@@H]2O)C[C@@H]2O[C@](O)(C[C@@H](O)C[C@@H](O)[C@H](O)CC[C@@H](O)C[C@@H](O)CC(=O)O[C@H]1C)C[C@H](O)[C@H]2C(=O)O [Amphotericin B, reference compound]
EC50 [1]: 0.04 ± 0.01 µM | EC50 [2]: 0.08 ± 0.02 µM | EC50 [7]: 0.06 ± 0.01 µM | CC50 at 72 h [3]: 12.1 ± 1.3 µM | EC50 [4]: 0.07 ± 0.01 µM

Cc1ccc(C(=O)Nc2ccc(S(=O)(=O)O)c3cc(S(=O)(=O)O)cc(S(=O)(=O)O)c23)cc1NC(=O)c1cccc(NC(=O)Nc2cccc(C(=O)Nc3cc(C(=O)Nc4ccc(S(=O)(=O)O)c5cc(S(=O)(=O)O)cc(S(=O)(=O)O)c45)ccc3C)c2)c1 [Suramin, reference compound]
CC50 at 72 h [5]: > 100 µM | EC50 [6]: 0.08 ± 0.04 µM

CCCCCCCCCCCCCCCCOP(=O)([O-])OCC[N+](C)(C)C [Miltefosine, reference compound]
EC50 [1]: 18.2 ± 0.5 µM | EC50 [2]: 0.3 ± 0.02 µM | EC50 [7]: 0.4 ± 0.14 µM | CC50 at 72 h [3]: 28.1 ± 3.4 µM
